Measured values taken from patent US10123540B1, “Disinfectant material” (PEN Inc., priority 2014, dated 2018).

Assays:
[1] = system: feline calcivirus ATCC VR-782; assay: Antiviral surface test, Modified ASTM E1053, limited to 10 minutes; settings: 20 mg/L in a water based solution applied to a surface; 10 minutes exposure; non-enveloped virus
Experimental: Copper ions (20 mg/L) in a water based solution were applied to a surface with the non-enveloped feline calcivirus ATCC VR-782. […] In our case we wanted to have an idea about the rate of killing and this is why we limited the test to 10 minutes.

Human Corona Virus 229E = settings: 10 minutes
[2] = system: H1N1 Influenza A, Strain A-California; assay: Towelette antiviral test, modified AATCC 100; settings: towelettes embedded with water based solution at 20 mg/L
Experimental: A number of other tests were performed against H1N1 Influenza A, Strain A-California, and Human Corona Virus 229E.

Row | Compound | reduction relative to the control [1] [%] | percent reduction (Human Corona Virus 229E) [%] | reduction vs time zero control [2] [%]
1 | [Cu+2] [Copper ions] | 82.22 | – | –
2 | copper iodide | – | 99.99 | 99.7
